Measured values taken from patent US12398154B2, “Azaquinazoline pan-KRas inhibitors” (Mirati Therapeutics, Inc., priority 2020, dated 2025).

Columns and labels:
KRas G12S = KRas G12S (Homo sapiens, UniProt P01116, G12S); assay: biochemical;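 also: TR-FRET displacement binding to KRas, read after one hour incubation at room temperature, IC50 from four-parameter fit of percent of control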
Procedure: (§1) The ability of a compound to bind to KRas was measured using a TR-FRET displacement assay. […] After a 60-minute incubation at room temperature, the reaction was measured using a BMG LABTECH CLARIO star Plus via TR-FRET. […] The POC values were fit to a 4-parameter IC50 equation and the IC50 value reported.

KRas G13D = molecular target: T1, KRas G13D (Homo sapiens, UniProt P01116, G13D); assay: KRas binding assay (TR-FRET displacement);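 also: One-hour room temperature incubation before TR-FRET reading, IC50 from a four-parameter curve fit to percent-of-control data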
T1 construct: Biotinylated KRas (corresponding to amino acids 1-169, produced at Accelegan Inc.); biotin (biotinylated); purchased Accelegan Inc
T1 sequence (P01116 1-169 isoform P01116-2 G13D): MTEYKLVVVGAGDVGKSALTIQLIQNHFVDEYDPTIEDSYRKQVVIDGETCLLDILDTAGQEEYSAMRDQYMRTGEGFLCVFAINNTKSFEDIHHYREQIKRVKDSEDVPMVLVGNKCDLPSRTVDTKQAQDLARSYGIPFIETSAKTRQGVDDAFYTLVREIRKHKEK
Procedure: as §1

KRas G12C = KRas G12C (Homo sapiens, UniProt P01116, G12C); assay: biochemical;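 also: binding to KRas assessed by TR-FRET displacement after one hour incubation at room temperature, potency fitted from percent-of-control values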
Chain of KRas G12C (P01116 1-169 isoform P01116-2 G12C): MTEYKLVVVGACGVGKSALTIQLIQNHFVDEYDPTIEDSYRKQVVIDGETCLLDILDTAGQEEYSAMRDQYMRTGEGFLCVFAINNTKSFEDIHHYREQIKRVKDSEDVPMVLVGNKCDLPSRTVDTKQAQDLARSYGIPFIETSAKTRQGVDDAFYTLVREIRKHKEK
Procedure: as §1

KRas G12D = KRas G12D (Homo sapiens, UniProt P01116, G12D); assay: biochemical;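 also: TR-FRET displacement binding assay on KRas, read after a one-hour incubation at room temperature, IC50 fitted from percent-of-control values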
Chain of KRas G12D (P01116 1-169 isoform P01116-2 G12D): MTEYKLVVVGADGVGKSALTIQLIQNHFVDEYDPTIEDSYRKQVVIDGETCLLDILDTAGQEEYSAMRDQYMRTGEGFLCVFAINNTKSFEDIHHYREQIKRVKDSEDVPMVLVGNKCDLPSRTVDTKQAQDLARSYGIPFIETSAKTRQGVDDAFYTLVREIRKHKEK
Procedure: as §1

KRas G12R = KRas G12R (Homo sapiens, UniProt P01116, G12R); assay: biochemical;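 also: TR-FRET displacement assay of compound binding to KRas, read after one hour at room temperature, potency from a four-parameter fit of percent-of-control values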
Chain of KRas G12R (P01116 1-169 isoform P01116-2 G12R): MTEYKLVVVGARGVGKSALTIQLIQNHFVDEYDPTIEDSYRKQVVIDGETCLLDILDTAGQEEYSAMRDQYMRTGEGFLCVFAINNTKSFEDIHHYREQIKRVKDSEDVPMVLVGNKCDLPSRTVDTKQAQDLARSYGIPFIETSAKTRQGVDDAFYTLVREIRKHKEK
Procedure: as §1

KRas Q61H = molecular target: T2, KRas Q61H (Homo sapiens, UniProt P01116, Q61H); assay: KRas binding assay (TR-FRET displacement);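 also: TR-FRET signal read after one hour at room temperature, IC50 derived by four-parameter fitting of percent-of-control values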
T2 construct: Biotinylated KRas (corresponding to amino acids 1-169, produced at Accelegan Inc.); biotin (biotinylated); purchased Accelegan Inc
T2 sequence (P01116 1-169 isoform P01116-2 Q61H): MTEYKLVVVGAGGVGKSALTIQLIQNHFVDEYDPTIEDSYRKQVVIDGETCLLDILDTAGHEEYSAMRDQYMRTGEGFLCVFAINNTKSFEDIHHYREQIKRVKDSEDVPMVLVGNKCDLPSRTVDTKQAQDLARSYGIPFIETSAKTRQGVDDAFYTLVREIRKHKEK
Procedure: as §1

KRas G12V = KRas G12V (Homo sapiens, UniProt P01116, G12V); assay: biochemical;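 also: KRas binding measured by TR-FRET displacement at room temperature, IC50 fitted from percent of control values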
Chain of KRas G12V (P01116 1-169 isoform P01116-2 G12V): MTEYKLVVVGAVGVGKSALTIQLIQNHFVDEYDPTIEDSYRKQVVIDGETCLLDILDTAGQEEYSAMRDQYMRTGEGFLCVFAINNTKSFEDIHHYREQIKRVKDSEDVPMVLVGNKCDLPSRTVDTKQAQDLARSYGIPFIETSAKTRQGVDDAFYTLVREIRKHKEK
Procedure: as §1

KRas G12A = KRas G12A (Homo sapiens, UniProt P01116, G12A); assay: biochemical;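 also: binding to KRas measured by TR-FRET displacement after one hour at room temperature, IC50 from a four-parameter fit of percent-of-control values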
Chain of KRas G12A (P01116 1-169 isoform P01116-2 G12A): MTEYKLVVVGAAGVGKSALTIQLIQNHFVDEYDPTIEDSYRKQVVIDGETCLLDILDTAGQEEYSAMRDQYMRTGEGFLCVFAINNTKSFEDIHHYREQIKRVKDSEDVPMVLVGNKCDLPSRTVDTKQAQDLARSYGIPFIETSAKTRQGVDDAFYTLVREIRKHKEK
Procedure: as §1

KRas WT = KRas WT (Homo sapiens, UniProt P01116); assay: biochemical;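 also: binding to KRas read as TR-FRET displacement after a one-hour room-temperature incubation, IC50 derived from percent-of-control values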
Chain of KRas WT (P01116 1-169 isoform P01116-2): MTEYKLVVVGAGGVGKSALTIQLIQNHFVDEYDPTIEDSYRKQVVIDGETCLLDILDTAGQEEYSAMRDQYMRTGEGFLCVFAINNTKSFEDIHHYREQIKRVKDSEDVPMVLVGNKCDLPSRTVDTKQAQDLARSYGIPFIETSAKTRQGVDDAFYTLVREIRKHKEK
Procedure: as §1

Chain of KRas G12S (P01116 1-169 isoform P01116-2 G12S): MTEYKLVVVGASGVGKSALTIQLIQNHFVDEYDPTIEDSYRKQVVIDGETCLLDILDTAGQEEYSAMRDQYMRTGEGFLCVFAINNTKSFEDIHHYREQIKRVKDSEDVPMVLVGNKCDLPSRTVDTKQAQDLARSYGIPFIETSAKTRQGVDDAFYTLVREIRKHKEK

Fc1c(-c2cccc3cccc(F)c23)ncc2c(NCc3ccc4[nH]cnc4c3)nc(OCC34CCCN3CCC4)nc12 [Example 80, N-((1H-benzo[d]imidazol-5-yl)methyl)-8-fluoro-7-(8-fluoronaphthalen-1-yl)-2-((hexahydro-1H-pyrrolizin-7a-yl)methoxy)pyrido[4,3-d]pyrimidin-4-amine]
IC50 (KRas G12S): 2.57 µM
IC50 (KRas G13D): 6310 nM
IC50 (KRas G12C): 1.25 µM
IC50 (KRas G12D): 29.8 µM
IC50 (KRas G12R): 1.47 µM
IC50 (KRas Q61H): 10700 nM
IC50 (KRas G12V): 1.59 µM
IC50 (KRas G12A): 1.58 µM
IC50 (KRas WT): 6.84 µM

Oc1cccc2c1CN(c1nc(OCC34CCCN3CCC4)nc3c(F)c(-c4cccc5cccc(F)c45)ncc13)C2 [Example 120, 2-(8-fluoro-7-(8-fluoronaphthalen-1-yl)-2-((tetrahydro-1H-pyrrolizin-7a(5H)-yl)methoxy)pyrido[4,3-d]pyrimidin-4-yl)isoindolin-4-ol]
IC50 (KRas G12S): 85.3 µM
IC50 (KRas G13D): ≥ 100000 nM
IC50 (KRas G12C): 19.8 µM
IC50 (KRas G12D): ≥ 100 µM
IC50 (KRas G12R): ≥ 100 µM
IC50 (KRas Q61H): ≥ 100000 nM
IC50 (KRas G12V): ≥ 100 µM
IC50 (KRas G12A): 33.3 µM
IC50 (KRas WT): 34.1 µM

CC1(O)COCCN(c2nc(OCC34CCCN3CCC4)nc3c(F)c(-c4cccc5cccc(F)c45)ncc23)C1 (stereo not drawn) [Example 64, 4-(8-fluoro-7-(8-fluoronaphthalen-1-yl)-2-((hexahydro-1H-pyrrolizin-7a-yl)methoxy)pyrido[4,3-d]pyrimidin-4-yl)-6-methyl-1,4-oxazepan-6-ol]
IC50 (KRas G12S): 1.15 µM
IC50 (KRas G13D): 1360 nM
IC50 (KRas G12C): 1.06 µM
IC50 (KRas G12D): 0.568 µM
IC50 (KRas G12R): 2.55 µM
IC50 (KRas Q61H): 1550 nM
IC50 (KRas G12V): 1.36 µM
IC50 (KRas G12A): 1.3 µM
IC50 (KRas WT): 0.997 µM

Fc1c(-c2cccc3cccc(F)c23)ncc2c(NCc3cnn4cccnc34)nc(OCC34CCCN3CCC4)nc12 [Example 214, 8-fluoro-7-(8-fluoronaphthalen-1-yl)-N-(pyrazolo[1,5-a]pyrimidin-3-ylmethyl)-2-((tetrahydro-1H-pyrrolizin-7a(5H)-yl)methoxy)pyrido[4,3-d]pyrimidin-4-amine]
IC50 (KRas G12S): 34.6 µM
IC50 (KRas G13D): 95100 nM
IC50 (KRas G12C): 9.59 µM
IC50 (KRas G12D): ≥ 100 µM
IC50 (KRas G12R): 16.4 µM
IC50 (KRas Q61H): 81100 nM
IC50 (KRas G12V): 12.6 µM
IC50 (KRas G12A): 28.8 µM
IC50 (KRas WT): 60 µM

Fc1c(-c2cccc3cccc(F)c23)ncc2c(N3CCCCC3)nc(OCC34CCCN3CCC4)nc12 [Example 21, 8-fluoro-7-(8-fluoronaphthalen-1-yl)-2-((hexahydro-1H-pyrrolizin-7a-yl)methoxy)-4-(piperidin-1-yl)pyrido[4,3-d]pyrimidine]
IC50 (KRas G12S): 18.8 µM
IC50 (KRas G13D): 12600 nM
IC50 (KRas G12C): 12.7 µM
IC50 (KRas G12D): 14.8 µM
IC50 (KRas G12R): 10.7 µM
IC50 (KRas Q61H): 19400 nM
IC50 (KRas G12V): 9.73 µM
IC50 (KRas G12A): 12.6 µM
IC50 (KRas WT): 11.4 µM

OCC1COCCN(c2nc(OCC34CCCN3CCC4)nc3c(F)c(-c4cccc5cccc(F)c45)ncc23)C1 (stereo not drawn) [Example 83, (4-(8-fluoro-7-(8-fluoronaphthalen-1-yl)-2-((hexahydro-1H-pyrrolizin-7a-yl)methoxy)pyrido[4,3-d]pyrimidin-4-yl)-1,4-oxazepan-6-yl)methanol]
IC50 (KRas G12S): 0.703 µM
IC50 (KRas G13D): 1890 nM
IC50 (KRas G12C): 0.509 µM
IC50 (KRas G12D): 0.392 µM
IC50 (KRas G12R): 0.992 µM
IC50 (KRas Q61H): 1990 nM
IC50 (KRas G12V): 0.498 µM
IC50 (KRas G12A): 0.735 µM
IC50 (KRas WT): 1.2 µM

CNC(=O)c1cc2n(n1)CCCN(c1nc(OCC34CCCN3CCC4)nc3c(F)c(-c4cccc5cccc(F)c45)ncc13)C2 [Example 259, 5-(8-fluoro-7-(8-fluoronaphthalen-1-yl)-2-((hexahydro-1H-pyrrolizin-7a-yl)methoxy)pyrido[4,3-d]pyrimidin-4-yl)-N-methyl-5,6,7,8-tetrahydro-4H-pyrazolo[1,5-a][1,4]diazepine-2-carboxamide]
IC50 (KRas G12S): 0.649 µM
IC50 (KRas G13D): 3300 nM
IC50 (KRas G12C): 0.825 µM
IC50 (KRas G12D): 0.158 µM
IC50 (KRas G12R): 0.769 µM
IC50 (KRas Q61H): 3180 nM
IC50 (KRas G12V): 0.38 µM
IC50 (KRas G12A): 1.52 µM
IC50 (KRas WT): 2.21 µM

O=C(O)[C@H]1C[C@H](Nc2nc(OCC34CCCN3CCC4)nc3c(F)c(-c4cccc5cccc(F)c45)ncc23)C1 [Example 91, trans-3-((8-fluoro-7-(8-fluoronaphthalen-1-yl)-2-((tetrahydro-1H-pyrrolizin-7a(5H)-yl)methoxy)pyrido[4,3-d]pyrimidin-4-yl)amino)cyclobutane-1-carboxylic acid]
IC50 (KRas G12S): 17.9 µM
IC50 (KRas G13D): 36600 nM
IC50 (KRas G12C): 11.3 µM
IC50 (KRas G12D): ≥ 100 µM
IC50 (KRas G12R): 2.2 µM
IC50 (KRas Q61H): 31400 nM
IC50 (KRas G12V): 12.7 µM
IC50 (KRas G12A): 12.7 µM
IC50 (KRas WT): 14.1 µM

Fc1c(-c2cccc3cccc(F)c23)ncc2c(NCc3c[nH]c4ncccc34)nc(OCC34CCCN3CCC4)nc12 [Example 94, N-((1H-pyrrolo[2,3-b]pyridin-3-yl)methyl)-8-fluoro-7-(8-fluoronaphthalen-1-yl)-2-((tetrahydro-1H-pyrrolizin-7a(5H)-yl)methoxy)pyrido[4,3-d]pyrimidin-4-amine]
IC50 (KRas G12S): 0.368 µM
IC50 (KRas G13D): 1250 nM
IC50 (KRas G12C): 0.183 µM
IC50 (KRas G12D): 4.51 µM
IC50 (KRas G12R): 0.115 µM
IC50 (KRas Q61H): 1850 nM
IC50 (KRas G12V): 0.146 µM
IC50 (KRas G12A): 0.24 µM
IC50 (KRas WT): 1.39 µM

Fc1c(-c2cccc3cccc(F)c23)ncc2c(NCCCc3cccnc3)nc(OCC34CCCN3CCC4)nc12 [Example 124, 8-fluoro-7-(8-fluoronaphthalen-1-yl)-N-(3-(pyridin-3-yl)propyl)-2-((tetrahydro-1H-pyrrolizin-7a(5H)-yl)methoxy)pyrido[4,3-d]pyrimidin-4-amine]
IC50 (KRas G12S): 3.87 µM
IC50 (KRas G13D): 7820 nM
IC50 (KRas G12C): 1.48 µM
IC50 (KRas G12D): 12.6 µM
IC50 (KRas G12R): 2.19 µM
IC50 (KRas Q61H): 7140 nM
IC50 (KRas G12V): 1.51 µM
IC50 (KRas G12A): 2.07 µM
IC50 (KRas WT): 7.02 µM

Fc1c(-c2cccc3cccc(F)c23)ncc2c(Nc3cnn(-c4ccncc4)c3)nc(OCC34CCCN3CCC4)nc12 [Example 210, 8-fluoro-7-(8-fluoronaphthalen-1-yl)-N-(1-(pyridin-4-yl)-1H-pyrazol-4-yl)-2-((tetrahydro-1H-pyrrolizin-7a(5H)-yl)methoxy)pyrido[4,3-d]pyrimidin-4-amine]
IC50 (KRas G12S): ≥ 100 µM
IC50 (KRas G13D): ≥ 100000 nM
IC50 (KRas G12C): 43.3 µM
IC50 (KRas G12D): ≥ 100 µM
IC50 (KRas G12R): 37.8 µM
IC50 (KRas Q61H): ≥ 100000 nM
IC50 (KRas G12V): 2.94 µM
IC50 (KRas G12A): 66.5 µM
IC50 (KRas WT): ≥ 100 µM

Fc1c(-c2cccc3cccc(F)c23)ncc2c(NCc3cnn4c3OCCC4)nc(OCC34CCCN3CCC4)nc12 [Example 222, N-((6,7-dihydro-5H-pyrazolo[5,1-b][1,3]oxazin-3-yl)methyl)-8-fluoro-7-(8-fluoronaphthalen-1-yl)-2-((tetrahydro-1H-pyrrolizin-7a(5H)-yl)methoxy)pyrido[4,3-d]pyrimidin-4-amine]
IC50 (KRas G12S): 26.9 µM
IC50 (KRas G13D): 70100 nM
IC50 (KRas G12C): 8.98 µM
IC50 (KRas G12D): ≥ 100 µM
IC50 (KRas G12R): 31.2 µM
IC50 (KRas Q61H): 52900 nM
IC50 (KRas G12V): 18.2 µM
IC50 (KRas G12A): 17.8 µM
IC50 (KRas WT): 35.9 µM

OCC1CN(c2nc(OCC34CCCN3CCC4)nc3c(F)c(-c4cccc5cccc(F)c45)ncc23)CCC1O (stereo not drawn) [Example 117, 1-(8-fluoro-7-(8-fluoronaphthalen-1-yl)-2-((tetrahydro-1H-pyrrolizin-7a(5H)-yl)methoxy)pyrido[4,3-d]pyrimidin-4-yl)-3-(hydroxymethyl)piperidin-4-ol]
IC50 (KRas G12S): 11 µM
IC50 (KRas G13D): 5680 nM
IC50 (KRas G12C): 6.57 µM
IC50 (KRas G12D): 32 µM
IC50 (KRas G12R): 10.1 µM
IC50 (KRas Q61H): 8240 nM
IC50 (KRas G12V): 11.1 µM
IC50 (KRas G12A): 9.15 µM
IC50 (KRas WT): 9.86 µM

O=S1(=O)CC[C@H](CNc2nc(OCC34CCCN3CCC4)nc3c(F)c(-c4cccc5cccc(F)c45)ncc23)N1 [Example 128, (R)-3-(((8-fluoro-7-(8-fluoronaphthalen-1-yl)-2-((tetrahydro-1H-pyrrolizin-7a(5H)-yl)methoxy)pyrido[4,3-d]pyrimidin-4-yl)amino)methyl)isothiazolidine 1,1-dioxide]
IC50 (KRas G12S): 7.8 µM
IC50 (KRas G13D): 13400 nM
IC50 (KRas G12C): 9.57 µM
IC50 (KRas G12D): 49 µM
IC50 (KRas G12R): 4.14 µM
IC50 (KRas Q61H): 18400 nM
IC50 (KRas G12V): 8.79 µM
IC50 (KRas G12A): 11.5 µM
IC50 (KRas WT): 12.8 µM

C[C@@H]1C[C@@H](O)CN(c2nc(OCC34CCCN3CCC4)nc3c(F)c(-c4cccc5cccc(F)c45)ncc23)C1 [Example 112, (3R,5R)-1-(8-fluoro-7-(8-fluoronaphthalen-1-yl)-2-((tetrahydro-1H-pyrrolizin-7a(5H)-yl)methoxy)pyrido[4,3-d]pyrimidin-4-yl)-5-methylpiperidin-3-ol]
IC50 (KRas G12S): 31 µM
IC50 (KRas G13D): 13300 nM
IC50 (KRas G12C): 27.5 µM
IC50 (KRas G12D): 37.5 µM
IC50 (KRas G12R): 28.1 µM
IC50 (KRas Q61H): 20700 nM
IC50 (KRas G12V): 25.9 µM
IC50 (KRas G12A): 25.3 µM
IC50 (KRas WT): 36.6 µM

Fc1c(-c2cccc3cccc(F)c23)ncc2c(Nc3ccc4cn[nH]c4c3)nc(OCC34CCCN3CCC4)nc12 [Example 218, 8-fluoro-7-(8-fluoronaphthalen-1-yl)-N-(1H-indazol-6-yl)-2-((tetrahydro-1H-pyrrolizin-7a(5H)-yl)methoxy)pyrido[4,3-d]pyrimidin-4-amine]
IC50 (KRas G12S): 23.2 µM
IC50 (KRas G13D): ≥ 100000 nM
IC50 (KRas G12C): 6.88 µM
IC50 (KRas G12D): 65.9 µM
IC50 (KRas G12R): 6.53 µM
IC50 (KRas Q61H): 84800 nM
IC50 (KRas G12V): 2.84 µM
IC50 (KRas G12A): 14.8 µM
IC50 (KRas WT): 28.9 µM
